# According to US5721213A, “Peptides, active as inhibitors of platelet aggregation” (Nippon Steel Corporation, priority 1993, dated 1998):
# Non-standard residues stand in square brackets, D forms with d. Residues, ends and D or L forms follow the SMILES beside them. Sar = CNCC(=O)O
# Assays:
# mouse = assay: acute toxicity test; type: in vivo; settings: intravenously injected, 100 mg/Kg
# platelet aggregation = settings: times as strong as RGDS; cited from earlier work
# [1] = tested on: platelets activated by ADP; settings: 400 μM; cited from earlier work
compound,measurement,setting,value
"C[C@H](NC(=O)[C@H](CO)NC(=O)[C@@H]1CCCN1)C(=O)N(C)CC(=O)N[C@@H](CC(=O)O)C(=O)N[C@@H](Cc1c[nH]c2ccccc12)C(=O)O [Example 1, Pro-Ser-Ala-Sar-Asp-Trp-OH] (H-PSA[Sar]DW-OH)",acute toxicity,mouse,no toxicity was observed
arginine-glycine-aspartic acid-phenylalanine [RGDF],platelet aggregation-inhibiting activity relative to RGDS,platelet aggregation,4-5 times
glycine-arginine-glycine-aspartic acid-serine-proline [GRGDSP],inhibition of aggregation of platelets activated by ADP,[1],completely inhibited
